According to patent US11136328B2, “3,3-difluoropiperidine carbamate heterocyclic compounds as NR2B NMDA receptor antagonists” (Rugen Holdings (Cayman) Limited, priority 2015, dated 2021):

Legend:
[1] = tested on: rats; test: Haloperidol-induced Catalepsy (HIC) model; type: in vivo; conditions: 8 mg/kg p.o. 60 minutes before the test
Source text: The Haloperidol-induced Catalepsy (HIC) model detects antipsychotic activity and the action of NR2B selective antagonists (Steece-Collier et al. Exp. Neurol. 163: 239, 2000) and was based on methods described by Chermat and Simon (J. Pharmacol., 6, 493-496, 1975). The capacity to induce catalepsy serves as an index of the liability of a test substance to induce extrapyramidal side-effects, in particular Parkinsonism. Antagonism of antipsychotic-induced catalepsy can thus serve to detect anti-Parkinson potential.
Rats were injected with haloperidol (1 mg/kg i.p.) and were examined for catalepsy at 30 minute intervals up to 360 minutes. Presence (+) or absence (−) of catalepsy was assessed by three procedures: 1) imposed crossing of the ipsilateral fore- and hind-limbs; 2) placing the animal in the Buddha position; 3) the tilting board, an automatic device that, 5 seconds after positioning the rat, displaces the rat from a horizontal to vertical position and back while it clings to a wire grid with its front paws. Akinesia and catalepsy were assessed depending on whether or not the animal moves before (akinesia) or during operation of the board (catalepsy). […]
Amphetamine (8 mg/kg p.o.), administered 60 minutes before the test (i.e. 90 minutes before the first measurement), was used as reference substance. […] Data with the reference substance were analyzed using Mann-Whitney U tests.

[2] = target: CYP2D6 (Homo sapiens (Human), UniProt P10635); test: CYP P450 enzyme inhibition in pooled human liver microsomes; type: in vitro ADME; conditions: 10 μM compound, pooled HLM
Description: Those CYP isoforms and their corresponding probe substrates are as follows: CYP1A2 (phenacetin, 30 μM), CYP2C9 (tolutamide, 100 μM), CYP2C19 (S-mephenytoin, 40 μM), CYP2D6 (dextromethorphan, 5 μM) and CYP3A4 (midazolam, 1 μM). All probe substrates were used at concentrations near or below their Kms. For experiment, a reaction mixture of test compound at 10 μM or in serial dilution, CYP probe substrate described above and 0.2 mg/mL pooled HLM in phosphate buffer, pH 7.4 in a final volume of 200 μL was pre-incubated at 37° C. for 10 minutes in triplicate. The reaction was initiated by addition of NADPH at final concentration of 1 mM. The reaction was terminated after 10 minutes (CYP1A2, CYP2D6 and CYP3A4) or 30 minutes (CYP2C9 and CYP2C19) by addition of 100 μL ice-cold acetonitrile with internal standard (IS). The samples were then centrifuged at 13,000 rpm and the supernatants were injected to LC-MS/MS (Agilent Technologies) to quantify the concentration of the specific metabolites of the probe substrates formed by individual CYP450 isoforms. The inhibition ratio is calculated as: (Mt−M0)/Mwater×100% in which Mt and M0 represent the concentrations of the specific probe substrate metabolite, which was formed by individual CYP450 isoform, at the beginning and end of the reaction in the presence of test compound; while Mwater represents the concentration of the specific metabolite at the end of the reaction in the absence of test compound. Test compound concentration-dependent response data experiments performed in triplicate.

[3] = tested on: rats; test: Cortical spreading depression (CSD) migraine model; type: in vivo
Description: The cortical spreading depression model is utilized to investigate whether treatment with compounds of the present invention affect electrophysiological and hemodynamic events in a rat model of migraine.
Rats were anesthetized with 5% isoflurane (in 70% N2O and 30% O2; flow 300 ml/min) and placed in a stereotactic frame. […] The rectal temperature was maintained at 37.0±1.0° C. with a homeothermic blanket system. The skin was opened by a medial incision and retracted laterally. Three burr holes were drilled under saline cooling over the right hemisphere at the following coordinates (mm from bregma): (1) posterior 4.5, lateral, 2.0 (occipital cortex): KCl application site; (2) posterior 0.5, lateral 2.0 (parietal cortex): LDF recording site; (3) anterior 2, lateral 2 (frontal cortex): DC potential recording site. A laser-Doppler flow probe (Oxyflow, Oxford Optronics, UK) to monitor CBF and an invasive Ag/AgCl electrode for measuring direct current (DC) potential shifts were placed in the parietal and frontal cortex burr holes on the intact dura and in the cortex, respectively. The laser-Doppler flow probe was positioned in an area free of large pial and dural vessels to minimize a large-vessel contribution to the signal. For the DC-potential measurement, a reference electrode was fixed in the neck. Dura overlying the occipital cortex was gently removed and care was taken to avoid bleeding. After surgical preparation, the cortex was allowed to recover for 15 minutes under saline irrigation. A cotton ball (2 mm diameter) soaked with 1M KCl was placed on the pial surface and kept moist by placing 5 μl of KCl solution every 15 minutes. Test compound or vehicle was administered ten (10) minutes prior to CSD initiation. […] The number of KCl-induced CSDs was counted for 2 hours. The CBF and DC-potentials were monitored continuously starting from 5 minutes before KCl exposure.
Test compound E1-1.2 was administered as a mesylate salt (mpk based on molecular weight of the mesylate salt).
The data was collected in Windaq acquisition software (Dataq Instruments, USA) at 20 kHz. The raw data was analyzed in Clampfit program (Axon Instruments, USA). The signals were low pass filtered (cut off range 5-10000 Hz) that CSD episodes in DC and CBF could be confirmed. The following parameters were analyzed: i) the number, duration and amplitude of DC-potentials, and ii) the number and amplitude of CBF events.

[4] = tested on: rats; test: Electroconvulsive Threshold Test (ECT); type: in vivo; conditions: 3, 10 and 30 mpk p.o., mesylate salt
Description: (§1) Test compound E1-8.2 was administered as the free base.
Rats were administered ECS (rectangular current: 0.6 ms pulse width, 1.5 s duration, 200 Hz) via earclip electrodes connected to a constant current shock generator (Ugo Basile: type 7801). Test compounds were administered by oral gavage (p.o.) 1 hour before the test at a dose volume of 5 mL/kg.
Treatment groups of 20 rats were exposed to ECS as follows: The first animal was exposed to 30 mA of ECS. […] (increases of 5 mA) until the first tonic convulsion was observed. Once the first tonic convulsion was observed, the intensity of ECS was decreased by 2 mA for the next animal and then decreased or increased by 2 mA from animal to animal depending on whether the previous animal convulsed or not. If the first animal did convulse (tonic convulsions) within 5 seconds, animal no 2 is exposed to 25 mA, etc. . . . (decreases of 5 mA) until the absence of tonic convulsions was observed. At this point, the intensity of ECS was increased by 2 mA for the next animal and then decreased or increased by 2 mA from animal to animal depending on whether the previous animal convulsed or not. The minimum current intensity applied is 5 mA and the maximum 95 mA. The first 5 animals serve to approach threshold current and were not included in the analysis. The results are presented as the mean current intensity administered to the final 15 animals of a group. The test was performed blind. A positive percent change indicates an anticonvulsant effect. A negative percent change indicates a proconvulsant effect. The test substance was evaluated at 4 doses, typically using 0.5% dimethylsulfoxide, 4% hydroxypropyl-b-cyclodextrin water as a vehicle, and administered p.o. 60 minutes before ECS, and compared with a vehicle control group. Diazepam (16 mg/kg p.o.), administered under the same experimental conditions, was used as reference substance. The experiment included 6 groups. Data with the test substance was analyzed by comparing treated groups with vehicle control using one-way ANOVA followed by Dunnett's t tests.

[5] = target: hERG channel (Homo sapiens (Human), UniProt Q12809); test: hERG channel inhibition, whole cell patch clamp; type: cell-based; conditions: 10 μM compound
Description: The assay was performed on hERG channel stably expressed in HEK293 cells. The cells were cultured at 37° C. in a humidified CO2 incubator in the growth medium consisting of DMEM, 10% fetal bovine serum and antibiotics. Prior to the assay, the cells were seeded onto a 12 mm PDL-coated glass coverslip and cultured in a 35 mm Petri dish. After 16 to 40 hr culture, the cover slip was transferred into the chamber of OctaFlow perfusion system (ALA Instrument) and under a constant flow of extracellular solution (140 mM NaCl, 4 mM KCl, 1 mM MgCl2, 2 mM CaCl2, 10 mM HEPES, 10 mM D-glucose, pH 7.35, osmolarity 290). Whole cell patch clamping was performed with a glass micropipette filled with intracellular solution (120 mM KCl, 1.75 mM MgCl2, 5.4 mM CaCl2, 10 mM HEPES, 10 mM EGTA, and 4 mM ATP-K2, PH 7.2, osmolarity 310). Giga-seal was maintained during the test. The voltage control and current measurement were carried out using Axon amplifier 700B, Digidata 1440A and CLAMPEX10 software (Molecular Devices). Whole-cell hERG currents were recorded following the Petroski protocol: the cell was held at −80 mV, and the voltage step jumped from −80 to 30 mV and stay for 2 sec with a 20 ms prepulse at −40 mV. After depolarization, the voltage was decreased to −40 mV and stay for 2 sec, and returned back to −80 mV. Test compound was applied by quartz capillary tubes tip (200 μm inner diameter), and the flow rate was controlled at 2-3 ml/min with OctaFlow perfusion system. Different concentrations of the compound were applied to the cells for 5 min and the hERG current was measured three times before, during and after compound treatment. The data were analyzed using Clampfit 10 software (Molecular Devices) to generate IC50 values.

[6] = tested on: rats; test: Pentylenetetrazole (PTZ) Seizure Test; type: in vivo; conditions: 10 mg/kg p.o. 30 min before PTZ 100 mg/kg s.c.
Description: Rats, placed in individual macrolon cages (25×19×13 cm), were injected with pentylenetetrazole (PTZ) (100 mg/kg s.c.). The occurrence and latency of clonic and tonic convulsions and death were noted over a 30 minute period. 15 rats were studied per group. The test was performed blind.
as §1
Compounds were evaluated typically using 0.5% dimethylsulfoxide, 4% hydroxypropyl-b-cyclodextrin water as a vehicle at 1 or more doses (e.g., 1, 3 and 10 mg/kg), administered p.o. 30 minutes before PTZ, and compared with a vehicle control group. Diazepam (16 mg/kg p.o.), administered 60 minutes before PTZ, was used as reference substance. The experiment was performed over 2 separate sub-experiments with N=7 to 8 animals per group and per sub-experiment. Quantitative data (latencies) with the test substance was analyzed by comparing treated groups with vehicle control using Kruskal-Wallis test followed by Mann-Whitney U test. Quantitative data with the reference substance was analyzed using Mann-Whitney U test. Quantal data (frequencies) was analyzed by comparing treated groups with vehicle control using Fisher's Exact Probability tests (*=p<0.05; **=p<0.01; ***=p<0.001).

[7] = tested on: rats; test: Rat formalin model; type: in vivo; conditions: each of 10, 30 and 60 mpk i.p., mesylate salt
Description: The rat formalin model is a tonic model of continuous pain resulting from formalin-induced spontaneous nociceptive behaviors. Intra-paw injection of formalin is a commonly used model to measure spontaneous nociceptive behaviors in rodents (Dubuisson, D. and Dennis, S. G. Pain 4:161, 1977). Subcutaneous plantar injection of formalin causes a bi-phasic nocifensive behavioral response in rodents. The early phase (phase-1) lasts for about 5-10 min following which an interphase occurs without any discernible nociceptive reactions after which the late phase (phase-II) nociceptive reaction ensues continuing from about 20-60 min following formalin injection. Formalin model is a model of tonic, persistent pain, and is widely used for rapid screening of novel analgesic compounds. […] In the present example, effects of test item were assessed in 0-5 minutes from the early phase (phase-I) and 20-35 minutes from the late phase (phase-II) of formalin-induced nociceptive behavior. […]
For all groups, animals were acclimated to the observation chamber for 15 minutes immediately prior to formalin injection. All animals received an intraplantar subcutaneous injection of 50 μL of 5% formalin into the left hind paw and then placed immediately into an observation chamber and formalin-evoked spontaneous nociceptive behaviors in the rats were continuously recorded for 0-60 min using a commercial camcorder. […]

[8] = E1-1.2 at various doses, MK-801 1.25 mg/kg

CYP2D6, sequence (P10635 whole entry): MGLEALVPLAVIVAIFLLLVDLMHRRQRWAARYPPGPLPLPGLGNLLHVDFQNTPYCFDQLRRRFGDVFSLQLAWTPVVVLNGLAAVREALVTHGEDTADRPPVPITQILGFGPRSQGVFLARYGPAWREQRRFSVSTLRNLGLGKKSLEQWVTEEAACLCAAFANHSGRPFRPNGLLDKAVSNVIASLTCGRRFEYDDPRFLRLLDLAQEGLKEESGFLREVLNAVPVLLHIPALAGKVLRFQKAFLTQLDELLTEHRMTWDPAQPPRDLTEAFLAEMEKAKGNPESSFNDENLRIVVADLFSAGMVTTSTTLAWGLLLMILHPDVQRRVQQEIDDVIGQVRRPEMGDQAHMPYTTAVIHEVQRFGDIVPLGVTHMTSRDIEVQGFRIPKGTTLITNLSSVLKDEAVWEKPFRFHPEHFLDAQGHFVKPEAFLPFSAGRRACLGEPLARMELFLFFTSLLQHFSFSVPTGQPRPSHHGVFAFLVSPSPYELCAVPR
hERG channel, sequence (Q12809 whole entry): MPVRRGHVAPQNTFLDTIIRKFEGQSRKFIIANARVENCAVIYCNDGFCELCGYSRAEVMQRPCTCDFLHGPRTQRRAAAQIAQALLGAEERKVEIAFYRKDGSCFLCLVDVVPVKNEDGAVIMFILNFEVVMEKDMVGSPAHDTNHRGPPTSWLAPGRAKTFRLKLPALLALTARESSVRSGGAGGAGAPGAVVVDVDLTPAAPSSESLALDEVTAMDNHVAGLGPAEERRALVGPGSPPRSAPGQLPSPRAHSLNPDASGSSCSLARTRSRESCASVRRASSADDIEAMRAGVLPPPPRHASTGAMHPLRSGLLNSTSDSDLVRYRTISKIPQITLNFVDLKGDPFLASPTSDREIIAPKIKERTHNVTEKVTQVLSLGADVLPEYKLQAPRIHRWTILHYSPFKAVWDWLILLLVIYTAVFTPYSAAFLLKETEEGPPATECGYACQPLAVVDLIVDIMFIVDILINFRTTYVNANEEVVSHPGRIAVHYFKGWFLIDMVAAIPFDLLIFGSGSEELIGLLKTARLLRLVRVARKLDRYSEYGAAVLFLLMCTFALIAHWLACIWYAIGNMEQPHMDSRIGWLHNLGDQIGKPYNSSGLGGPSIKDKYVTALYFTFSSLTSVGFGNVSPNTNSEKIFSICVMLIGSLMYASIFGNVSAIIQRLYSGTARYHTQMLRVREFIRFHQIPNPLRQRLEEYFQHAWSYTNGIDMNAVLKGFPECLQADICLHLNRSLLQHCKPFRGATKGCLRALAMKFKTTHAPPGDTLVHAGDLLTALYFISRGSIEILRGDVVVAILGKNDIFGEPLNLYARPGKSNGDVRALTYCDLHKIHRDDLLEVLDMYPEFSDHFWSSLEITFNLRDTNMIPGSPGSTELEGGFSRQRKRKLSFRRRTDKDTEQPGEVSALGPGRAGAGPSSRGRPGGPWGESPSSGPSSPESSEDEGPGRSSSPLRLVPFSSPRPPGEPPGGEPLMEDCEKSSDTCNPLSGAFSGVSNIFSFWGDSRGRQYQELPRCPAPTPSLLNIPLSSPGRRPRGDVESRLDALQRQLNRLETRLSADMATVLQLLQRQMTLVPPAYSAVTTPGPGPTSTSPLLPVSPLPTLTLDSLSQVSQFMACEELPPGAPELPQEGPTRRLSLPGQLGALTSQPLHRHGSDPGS

Compound | anticataleptic activity [1] | CYP2D6 @ 10 μM (%) [2] | magnitude of CBF vs vehicle [3] | number of DC potentials vs vehicle group ([3]; 3 mpk, 10 mpk and 30 mpk, mesylate salt) | number of CBF events vs vehicle ([3]; E1-1.2 at 10 mg/kg, MK-801 at 1.25 mg/kg) | amplitude of DC potentials vs vehicle [3, 8] | duration of DC potentials vs vehicle [3, 8] | activity on electroconvulsive threshold [4] | hERG @ 10 μM (%) [5] | change in latency to death [6] | change in number of deaths vs vehicle controls [6] | cumulative time spent on nociceptive behavior in phase I (0-5 mins) [7] | cumulative time spent on nociceptive behavior in phase II (20-35 mins) [7]
CC(N)Cc1ccccc1 (stereo not shown) [amphetamine] | showed the expected robust anticataleptic activity |  |  |  |  |  |  |  |  |  |  |  | 
Cc1ccc(COC(=O)N2CC[C@H](CNc3nccn4cnnc34)C(F)(F)C2)cc1 [Compound E1-1.2, (+)-R-4-methylbenzyl 4-(([1,2,4]triazolo[4,3-a]pyrazin-8-ylamino)methyl)-3,3-difluoropiperidine-1-carboxylate] |  | 14% | unchanged | significantly decreased | decreased | not statistically different compared to vehicle | not statistically different compared to vehicle | robust anticonvulsant activity | 17% | +35% | −91% | decreased | decreased
